Laboratory results from US11771697B2, “Small molecule degraders of polybromo-1 (PBRM1)” (DANA-FARBER CANCER INSTITUTE, INC., priority 2018, dated 2023).
Blank lines part the entries; values can stand above or below the compound they belong to.

What was measured:
Format in all cases: cell-based
[1] = target: T1, PBRM1 (Homo sapiens, UniProt Q86U86); assay: Kelly cell PBRM1 Western blot for cellular degradation of proteins; conditions: Kelly cells; relative to GAPDH, compared to DMSO
T1 construct: near complete degradation of endogenous PBRM1; endogenous in cells; host or cells: Kelly cells
Description: Kelly cells were treated with compounds as indicated and incubated for 6 or 24 hours. Samples were run on 4-20% or Any kD™ SDS-PAGE Gels (Bio-Rad), and transferred to PVDF membranes using the iBlot 2.0 dry blotting system (Thermo-Fisher Scientific). Membranes were blocked with LI-COR blocking solution (LI-COR), and incubated with primary antibodies overnight, followed by three washes in LI-COR blocking solution and incubation with secondary antibodies for one hour in the dark. After three final washes, the membranes were imaged on a LI-COR fluorescent imaging station (LI-COR). Antibodies used: anti-PBRM1 at 1:500 dilution (Cell Signaling, clone D3F70), anti-GAPDH at 1:10,000 dilution (G8795, Sigma), IRDye 680 Donkey anti-mouse at 1:10,000 dilution (926-68072, LI-COR).

[2] = target: T2, CRBN (Homo sapiens, UniProt Q96SW2); assay: Cellular CRBN binding assay (BRD4BD2-GFP/mCherry reporter, competition with 100 nM dBET6); conditions: GFP/RFP ratio, Flip-In 293 cells expressing BRD4BD2-GFP, 5 hours
T2 construct: Cells stably expressing BRD4BD2-GFP with mCherry reporter were seeded; endogenous in cells; host or cells: Flip-In 293 cells stably expressing BRD4BD2-eGFP-P2A-mCherry
Description: (§1) BRD4BD2 were subcloned into mammalian pcDNA5/FRT Vector (Ampicillin and Hygromycin B resistant) modified to contain MCS-eGFP-P2A-mCherry. Stable cell lines expressing eGFP-protein fusion and mCherry reporter were generated using the Flip-In™ 293 system. Plasmid (0.3 μg) and pOG44 (4.7 μg) DNA were preincubated in 100 of Opti-MEM I (Gibco™, Life Technologies) media containing 0.05 mg/ml Lipofectamine® 2000 (Invitrogen) for 20 minutes and added to Flip-In™ 293 cells containing 1.9 ml of DMEM media (Gibco™, Life Technologies) per well in a 6-well plate format (Falcon, 353046). Cells were propagated after 48 hours and transferred into a 10 cm^2 plate (Corning, 430165) in DMEM media containing 50 μg/ml of Hygromycin B (REF 10687010, Invitrogen) as a selection marker. Following a 2-3 passage cycle, FACS (FACSAria II, BD) was used to enrich for cells expressing eGFP and mCherry.
Cells stably expressing BRD4BD2-GFP with mCherry reporter were seeded at 30-50% confluency in 384 well plates (3764, Corning) with 50 μl FluoroBrite DMEM media (Gibco™, A18967) containing 10% FBS per well a day before compound treatment. Compounds and 100 nM dBET6 were dispensed using D300e Digital Dispenser (HP) normalized to 0.5% DMSO and incubated with cells for 5 hours. The assay plate was imaged immediately using Acumen eX3/HCl (TTPLabtech) High Content Imager with 488 nm and 561 nm lasers in […] grid per well format. The resulting images were analyzed using CellProfiler (Carpenter, et al., Genome Biol. 7:R100 PIMD 17076895 (2006)).

[3] = target: T3, PBRM1 PB5 (Homo sapiens, UniProt Q86U86); assay: PBRM1 PB5 GFP/RFP degradation assay (flow cytometry reporter assay); conditions: 5 hours, FIG. 3A-3F
Description: as §1, with “PBRM1 PB5 was” for “BRD4BD2 were”, “[…])” for “μg)”, “Lipofectamine” for “Lipofectamine®”
Cells were seeded at 30-50% confluency in either 24, 48 or 96 well plates (3524, 3548, 3596, respectively, Costar) a day before compound treatment. Titrated compounds were incubated with cells for 5 hours following trypsinization and resuspension in DMEM media, transferred into 96-well plates (353910, Falcon) and analyzed by flow cytometer (guava easyCyte HT, Millipore). Signal from minimal 3000 events per well was acquired and the eGFP and mCherry florescence were monitored. Data was analyzed using FlowJo® (FlowJo, LLC). Forward and side scatter outliers, frequently associated with cell debris, were removed leaving >90% of total cells, followed by removal of eGFP and mCherry signal outliers, leaving 88-90% of total cells creating the set used for quantification. The eGFP protein abundance relative to mCherry was then quantified as a ten-fold amplified ratio for each individual cell using the formula: 10×eGFP/mCherry. The median of the ratio was then calculated per set, normalized to the median of the DMSO ratio.
The assay described in Example 16 was repeated, using compounds 3-8 and the control (“negative compound” (G)).

[4] = target: T3, PBRM1 PB5; assay: Imaging based PBRM1 PB5 GFP/RFP degradation assay; conditions: after 3 h of incubation; for degradation of PBRM1 PB5: FIG. 3H-3J
Description: Cells stably expressing PBRM1 PB5 in Example 16, were seeded at 30-50% confluency in 384 well plates (3764, Corning) with 50 μL FluoroBrite DMEM media (Gibco, A18967) containing 10% FBS per well a day before compound treatment. […] The assay plate was imaged immediately using Acumen eX3/HCl (TTPLabtech) High Content Imager with 488 nm and 561 nm lasers in […] grid per well format. The resulting images were analyzed using CellProfiler (Carpenter et al., Genome Biol. 7R100 PIMD 17076895 (2006)). A series of image analysis steps (‘image analysis pipeline’) was constructed.
The CellProfiler pipeline steps were as follows. First, the red and green channels were aligned and cropped to target the middle of each well (to avoid analysis of heavily clumped cells at the edges), and a background illumination function was calculated for both red and green channels of each well individually and subtracted to correct for illumination variations across the 384-well plate from various sources of error. An additional step was then applied to the green channel to suppress the analysis of large auto fluorescent artifacts and enhance the analysis of cell specific fluorescence by way of selecting for objects under a given size, 30 A.U., and with a given shape, speckles. Cells that were mCherry-positive were then identified in the red channel filtering for objects between 8-60 pixels in diameter and using intensity to distinguish between clumped objects. The green channel was then segmented into GFP positive and negative areas and objects were labeled as GFP positive if at least 40% of it overlapped with a GFP positive area. The fraction of GFP-positive cells/mCherry-positive cells (GFP/mCherry ratio) in each well was then calculated, and the green and red images were rescaled for visualization. The GFP/mCherry ratio was normalized to DMSO visualized in GraphPad Prism 7.

Structure (SMILES): Nc1nnc(-c2ccccc2O)cc1N1CCN(C(=O)CCOCCNc2cccc3c2CN(C2CCC(=O)NC2=O)C3=O)CC1 (centres unmarked) [Compound 1, 3-(4-((2-(3-(4-(3-amino-6-(2-hydroxyphenyl)pyridazin-4-yl)piperazin-1-yl)-3-oxopropoxy)ethyl)amino)-1-oxoisoindolin-2-yl)piperidine-2,6-dione]
degradation of PBRM1 (Western blot, FIG. 4) [1]: degradation of PBRM1 | IC50 [2]: 30500 nM

IC50 [2]: 20900 nM
Structure (SMILES): Nc1nnc(-c2ccccc2O)cc1N1CCN(C(=O)CCOCCOCCNc2cccc3c2CN(C2CCC(=O)NC2=O)C3=O)CC1 (centres unmarked) [Compound 2, 3-(4-((2-(2-(3-(4-(3-amino-6-(2-hydroxyphenyl)pyridazin-4-yl)piperazin-1-yl)-3-oxopropoxy)ethoxy)ethyl)amino)-1-oxoisoindolin-2-yl)piperidine-2,6-dione]

DC50 [3]: 2.86 nM | IC50 [2]: 162 nM
Structure (SMILES): Nc1nnc(-c2ccccc2O)cc1N1CCN(C(=O)CCCCCCCCOc2cccc3c2C(=O)N(C2CCC(=O)NC2=O)C3=O)CC1 (centres unmarked) [Compound 3, 4-((9-(4-(3-amino-6-(2-hydroxyphenyl)pyridazin-4-yl)piperazin-1-yl)-9-oxononyl)oxy)-2-(2,6-dioxopiperidin-3-yl)isoindoline-1,3-dione]

DC50 [3]: 21.8 nM
Structure (SMILES): Nc1nnc(-c2ccccc2O)cc1N1CCN(C(=O)COc2cccc3c2C(=O)N(C2CCC(=O)NC2=O)C3=O)CC1 (centres unmarked) [Compound 4, 4-(2-(4-(3-amino-6-(2-hydroxyphenyl)pyridazin-4-yl)piperazin-1-yl)-2-oxoethoxy)-2-(2,6-dioxopiperidin-3-yl)isoindoline-1,3-dione]

DC50 [3]: 3.64 nM
Structure (SMILES): Nc1nnc(-c2ccccc2O)cc1N1CCN(C(=O)CCCCCCCCCCOc2cccc3c2C(=O)N(C2CCC(=O)NC2=O)C3=O)CC1 (centres unmarked) [Compound 5, 4-((11-(4-(3-amino-6-(2-hydroxyphenyl)pyridazin-4-yl)piperazin-1-yl)-11-oxoundecyl)oxy)-2-(2,6-dioxopiperidin-3-yl)isoindoline-1,3-dione]

DC50 [3]: 6.42 nM
Structure (SMILES): Nc1nnc(-c2ccccc2O)cc1N1CCN(C(=O)CCCCCCCOc2cccc3c2C(=O)N(C2CCC(=O)NC2=O)C3=O)CC1 (centres unmarked) [Compound 6, 4-((8-(4-(3-amino-6-(2-hydroxyphenyl)pyridazin-4-yl)piperazin-1-yl)-8-oxooctyl)oxy)-2-(2,6-dioxopiperidin-3-yl)isoindoline-1,3-dione]

DC50 [3]: 6.35 nM
Structure (SMILES): Nc1nnc(-c2ccccc2O)cc1N1CCN(C(=O)CCCCCCOc2cccc3c2C(=O)N(C2CCC(=O)NC2=O)C3=O)CC1 (centres unmarked) [Compound 7, 4-((7-(4-(3-amino-6-(2-hydroxyphenyl)pyridazin-4-yl)piperazin-1-yl)-7-oxoheptyl)oxy)-2-(2,6-dioxopiperidin-3-yl)isoindoline-1,3-dione]

DC50 [3]: 3.9 nM
Structure (SMILES): Nc1nnc(-c2ccccc2O)cc1N1CCN(C(=O)CCCCCCCCCOc2cccc3c2C(=O)N(C2CCC(=O)NC2=O)C3=O)CC1 (centres unmarked) [Compound 8, 4-((10-(4-(3-amino-6-(2-hydroxyphenyl)pyridazin-4-yl)piperazin-1-yl)-10-oxodecyl)oxy)-2-(2,6-dioxopiperidin-3-yl)isoindoline-1,3-dione]

degradation of PBRM1 PB5 [4]: less effective
Structure (SMILES): Cc1ncsc1-c1ccc([C@H](C)NC(=O)[C@@H]2C[C@@H](O)CN2C(=O)[C@@H](NC(=O)CCCCCCCCN2CCN(c3cc(-c4ccccc4O)nnc3N)CC2)C(C)(C)C)cc1 [Compound 11, (2S,4R)-1-((S)-2-(9-(4-(3-amino-6-(2-hydroxyphenyl)pyridazin-4-yl)piperazin-1-yl)nonanamido)-3,3-dimethylbutanoyl)-4-hydroxy-N—((S)-1-(4-(4-methylthiazol-5-yl)phenyl)ethyl)pyrrolidine-2-carboxamide]

Structure (SMILES): Cc1ncsc1-c1ccc([C@H](C)NC(=O)[C@@H]2C[C@@H](O)CN2C(=O)[C@@H](NC(=O)CCCCCCCC(=O)N2CCN(c3cc(-c4ccccc4O)nnc3N)CC2)C(C)(C)C)cc1 [Compound 12, (2S,4R)-1-((S)-2-(9-(4-(3-Amino-6-(2-hydroxyphenyl)pyridazin-4-yl)piperazin-1-yl)-9-oxononanamido)-3,3-dimethylbutanoyl)-4-hydroxy-N—((S)-1-(4-(4-methylthiazol-5-yl)phenyl)ethyl)pyrrolidine-2-carboxamide]
degradation of PBRM1 PB5 [4]: potent degradation

Structure (SMILES): Nc1nnc(-c2ccccc2O)cc1N1CCN(CCCCCCNC(=O)COc2cccc3c2C(=O)N(C2CCC(=O)NC2=O)C3=O)CC1 (centres unmarked) [Compound 13, N-(6-(4-(3-amino-6-(2-hydroxyphenyl)pyridazin-4-yl)piperazin-1-yl)hexyl)-2-((2-(2,6-dioxopiperidin-3-yl)-1,3-dioxoisoindolin-4-yl)oxy)acetamide]
degradation of PBRM1 PB5 [4]: potent degradation | hook effect ([4]; high compound concentration): hook effect
